Data as given in publication PMC8162404, “Proteomimetic surface fragments distinguish targets by function” (Chemical Science, 2020).
Like-named read-outs stand apart in the source and are kept apart here.

Target: T1, Gal-1 (Homo sapiens, UniProt P09382)
T1 construct: made in house; host or cells: E. coli BL21(DE3)
Test: Pull-down assay with immobilized protein and LSM libraries
Type: binding
Procedure: Pull-down assays with immobilized test proteins and foldameric LSM libraries were carried out. Proteins were equilibrated with LSM probes, and equilibrium bound fractions (FB) were determined from the unbound fractions measured by HPLC-MS methods. Hits were corrected with background binding of the resin. The protocol allowed all binding events to equilibrate irrespective of affinity, specificity, and binding kinetics. This was essential to judge overall druggability and promiscuity. Importantly, the concentration of protein and the total concentration of foldameric LSMs were equimolar, which minimized competition between the probes. This experimental setup approximated independent binding of individual library members. Results were visualized as heat maps of dissociation constants (Fig. 3).
Pull-down assay and data analysis
Pull-down assay. LSM sublibraries were screened separately as previously described.(2) Experiments were performed in the following buffers: (i) 20 mM pH 7.4 HEPES, 150 mM NaCl, 5 mM CaCl2 for CaM; (ii) 50 mM pH 7.4 HEPES, 150 mM NaCl, 1 mM TCEP, 1 mM CaCl2 for S100 proteins; (iii) 20 mM pH 7.4 HEPES, 150 mM NaCl, 1 mM TCEP for Gal-1 and (iv) 20 mM pH 7.4 HEPES, 150 mM NaCl for RecQ-WH. Assays were performed in paper filter spin cups (Thermo Scientific) with sample volumes of 100 µl. Hexahistidine-tagged proteins were immobilized on previously washed Co-NTA resin (TALON, Takara Bio USA, Inc., Mountain View, CA) in 64 µM final concentration. LSM sublibrary was added, in which each of the 64 library members were used at a concentration of 1 µM. Samples were incubated at room temperature for 30 min with shaking at 100 rpm. Then, samples were centrifuged at 1000 rpm for 2 min and washed with 100 µl pull-down buffer to remove unbound compounds.
The control experiments were performed using the same compounds and the resin but without the immobilized protein. In case of competitive assays, competitor peptides were added to LSM sublibrary samples in 200 µM final concentration. In the case of Gal-1, lactose (competitor) was used in a concentration of 10 mM. Experiments were performed at least twice. Mean […]
LC-MS methods and parameters. HPLC/ESI-MS analysis was used to characterize the samples from the pull-down assay. LC-MS analysis was performed with a Thermo Scientific Dionex UltiMate 3000 HPLC system interfaced to an LTQ ion trap mass spectrometer (Thermo Electron Corp., San Jose, CA, USA). Samples were injected onto an Aeris Widepore XB-C18 (250 x 4.6 mm) analytical HPLC column using gradient elution 5-80 % solution B during 25 minutes. For pull-down samples, eluent composition was 0.1% acetic acid in distilled water (Solution A) and 0.1% acetic acid in acetonitrile (solution B). Mass spectra were acquired in full scan mode from 200 to 2000 m/z range. For overlapping peaks, selective reaction monitoring (SRM) was […]
MS data analysis. Thermo Xcalibur 2.2 software was used for peak identification and integration. The majority of the foldameric fragments could be resolved independently via HPLC-MS/MS measurements based on molecular weight, MS fragmentation pattern and retention time. Peaks of some foldamers with β3-hIle or β3-hLeu in position R2 could not be resolved, these were integrated and averaged. In the processing method, each sample component was associated to a chromatographic peak based on previously identified mass (m/z) and retention time (ref (2) and Table S7-10). Using ICIS peak detection algorithm, the general detection and integration criteria were: smoothing points: 5, baseline window: 80, area noise factor: 5, peak noise factor: 10. Using these processing setups, all raw data files were reprocessed together and analyzed. Errors in peak identification during the automatic processing were corrected manually.
Calculation of the discussed parameters
1. Bound fractions (FB.) were calculated from the HPLC-MS intensity loss of the LSM probes compared to the control where no protein was immobilized to the resin: […]

[1] = H12 library, 1:1 binding assumed, read-out: Surface mapping KD (apparent)

T1 sequence (P09382 whole entry): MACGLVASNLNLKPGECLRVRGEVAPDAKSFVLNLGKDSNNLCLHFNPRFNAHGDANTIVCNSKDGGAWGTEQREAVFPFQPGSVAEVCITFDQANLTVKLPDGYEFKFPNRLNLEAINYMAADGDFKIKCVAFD

SMILES	Kd [1] [µM]	Kd (read-out: KD estimated by pull-down experiments) [µM]
NC(=O)[C@H]1CCC[C@@H]1NC(=O)[C@H]1CCC[C@@H]1NC(=O)C[C@H](Cc1ccccc1)NC(=O)[C@H]1CCC[C@@H]1NC(=O)[C@H]1CCC[C@@H]1NC(=O)C[C@H](CCC(=O)O)NC(=O)[C@H]1CCC[C@@H]1NC(=O)[C@H]1CCC[C@@H]1N [H12 EF]	245	
C[C@@H](CC(=O)N[C@H]1CCC[C@@H]1C(=O)N[C@H]1CCC[C@@H]1C(=O)N[C@@H](CO)CC(=O)N[C@H]1CCC[C@@H]1C(=O)N[C@H]1CCC[C@@H]1C(N)=O)NC(=O)[C@H]1CCC[C@@H]1NC(=O)[C@H]1CCC[C@@H]1N [H12 AS]	307	
NC(=O)[C@H]1CCC[C@@H]1NC(=O)[C@H]1CCC[C@@H]1NC(=O)C[C@H](CCC(=O)O)NC(=O)[C@H]1CCC[C@@H]1NC(=O)[C@H]1CCC[C@@H]1NC(=O)C[C@H](CCC(=O)O)NC(=O)[C@H]1CCC[C@@H]1NC(=O)[C@H]1CCC[C@@H]1N [H12 EE]	349	
C[C@@H](CC(=O)N[C@H]1CCC[C@@H]1C(=O)N[C@H]1CCC[C@@H]1C(=O)N[C@@H](CCC(N)=O)CC(=O)N[C@H]1CCC[C@@H]1C(=O)N[C@H]1CCC[C@@H]1C(N)=O)NC(=O)[C@H]1CCC[C@@H]1NC(=O)[C@H]1CCC[C@@H]1N [H12 AQ]	456	
C[C@@H](CC(=O)N[C@H]1CCC[C@@H]1C(=O)N[C@H]1CCC[C@@H]1C(=O)N[C@@H](CC(N)=O)CC(=O)N[C@H]1CCC[C@@H]1C(=O)N[C@H]1CCC[C@@H]1C(N)=O)NC(=O)[C@H]1CCC[C@@H]1NC(=O)[C@H]1CCC[C@@H]1N [H12 AN]	330	
C[C@@H](CC(=O)N[C@H]1CCC[C@@H]1C(=O)N[C@H]1CCC[C@@H]1C(=O)N[C@@H](CCC(=O)O)CC(=O)N[C@H]1CCC[C@@H]1C(=O)N[C@H]1CCC[C@@H]1C(N)=O)NC(=O)[C@H]1CCC[C@@H]1NC(=O)[C@H]1CCC[C@@H]1N [H12 AE]	388	
NCCCC[C@@H](CC(=O)N[C@H]1CCC[C@@H]1C(=O)N[C@H]1CCC[C@@H]1C(N)=O)NC(=O)[C@H]1CCC[C@@H]1NC(=O)[C@H]1CCC[C@@H]1NC(=O)C[C@H](CC(=O)O)NC(=O)[C@H]1CCC[C@@H]1NC(=O)[C@H]1CCC[C@@H]1N [H12 DK]	173	
NC(=O)[C@H]1CCCC[C@@H]1NC(=O)C[C@H](Cc1c[nH]c2ccccc12)NC(=O)[C@H]1CCCC[C@@H]1NC(=O)[C@H]1CCCC[C@@H]1NC(=O)C[C@H](Cc1c[nH]c2ccccc12)NC(=O)[C@H]1CCCC[C@@H]1N [1b]		30 to 40
NC(=O)[C@H]1CCC[C@@H]1NC(=O)[C@H]1CCC[C@@H]1NC(=O)C[C@H](CO)NC(=O)[C@H]1CCC[C@@H]1NC(=O)[C@H]1CCC[C@@H]1NC(=O)C[C@H](CC(=O)O)NC(=O)[C@H]1CCC[C@@H]1NC(=O)[C@H]1CCC[C@@H]1N [H12 DS]	199	
C[C@@H](CC(=O)N[C@H]1CCC[C@@H]1C(=O)N[C@H]1CCC[C@@H]1C(=O)N[C@@H](CC(=O)O)CC(=O)N[C@H]1CCC[C@@H]1C(=O)N[C@H]1CCC[C@@H]1C(N)=O)NC(=O)[C@H]1CCC[C@@H]1NC(=O)[C@H]1CCC[C@@H]1N [H12 AD]	438	
CC(C)[C@@H](CC(=O)N[C@H]1CCC[C@@H]1C(=O)N[C@H]1CCC[C@@H]1C(N)=O)NC(=O)[C@H]1CCC[C@@H]1NC(=O)[C@H]1CCC[C@@H]1NC(=O)C[C@H](CC(=O)O)NC(=O)[C@H]1CCC[C@@H]1NC(=O)[C@H]1CCC[C@@H]1N [H12 DV]	270	
NC(=O)[C@H]1CCC[C@@H]1NC(=O)[C@H]1CCC[C@@H]1NC(=O)C[C@H](CCC(=O)O)NC(=O)[C@H]1CCC[C@@H]1NC(=O)[C@H]1CCC[C@@H]1NC(=O)C[C@H](CC(=O)O)NC(=O)[C@H]1CCC[C@@H]1NC(=O)[C@H]1CCC[C@@H]1N [H12 DE]	238	

Now from value to compound, other results behind:

Kd [1] [µM]	SMILES	Kd (read-out: KD estimated by pull-down experiments) [µM]
462	CC[C@H](C)[C@@H](CC(=O)N[C@H]1CCC[C@@H]1C(=O)N[C@H]1CCC[C@@H]1C(=O)N[C@@H](CC(=O)O)CC(=O)N[C@H]1CCC[C@@H]1C(=O)N[C@H]1CCC[C@@H]1C(N)=O)NC(=O)[C@H]1CCC[C@@H]1NC(=O)[C@H]1CCC[C@@H]1N [H12 ID]	
244	CC(C)C[C@@H](CC(=O)N[C@H]1CCC[C@@H]1C(=O)N[C@H]1CCC[C@@H]1C(N)=O)NC(=O)[C@H]1CCC[C@@H]1NC(=O)[C@H]1CCC[C@@H]1NC(=O)C[C@H](CCC(=O)O)NC(=O)[C@H]1CCC[C@@H]1NC(=O)[C@H]1CCC[C@@H]1N [H12 EL]	
235	NC(=O)[C@H]1CCC[C@@H]1NC(=O)[C@H]1CCC[C@@H]1NC(=O)C[C@H](Cc1c[nH]c2ccccc12)NC(=O)[C@H]1CCC[C@@H]1NC(=O)[C@H]1CCC[C@@H]1NC(=O)C[C@H](CCC(=O)O)NC(=O)[C@H]1CCC[C@@H]1NC(=O)[C@H]1CCC[C@@H]1N [H12 EW]	
236	NC(=O)CC[C@@H](CC(=O)N[C@H]1CCC[C@@H]1C(=O)N[C@H]1CCC[C@@H]1C(N)=O)NC(=O)[C@H]1CCC[C@@H]1NC(=O)[C@H]1CCC[C@@H]1NC(=O)C[C@H](CCC(=O)O)NC(=O)[C@H]1CCC[C@@H]1NC(=O)[C@H]1CCC[C@@H]1N [H12 EQ]	
289	NC(=O)[C@H]1CCC[C@@H]1NC(=O)[C@H]1CCC[C@@H]1NC(=O)C[C@H](CO)NC(=O)[C@H]1CCC[C@@H]1NC(=O)[C@H]1CCC[C@@H]1NC(=O)C[C@H](CCC(=O)O)NC(=O)[C@H]1CCC[C@@H]1NC(=O)[C@H]1CCC[C@@H]1N [H12 ES]	
408	CC(C)[C@@H](CC(=O)N[C@H]1CCC[C@@H]1C(=O)N[C@H]1CCC[C@@H]1C(=O)N[C@@H](CO)CC(=O)N[C@H]1CCC[C@@H]1C(=O)N[C@H]1CCC[C@@H]1C(N)=O)NC(=O)[C@H]1CCC[C@@H]1NC(=O)[C@H]1CCC[C@@H]1N [H12 VS]	
242	N=C(N)NCCC[C@@H](CC(=O)N[C@H]1CCC[C@@H]1C(=O)N[C@H]1CCC[C@@H]1C(=O)N[C@@H](CO)CC(=O)N[C@H]1CCC[C@@H]1C(=O)N[C@H]1CCC[C@@H]1C(N)=O)NC(=O)[C@H]1CCC[C@@H]1NC(=O)[C@H]1CCC[C@@H]1N [H12 RS]	
470	CC(C)C[C@@H](CC(=O)N[C@H]1CCC[C@@H]1C(=O)N[C@H]1CCC[C@@H]1C(=O)N[C@@H](CC(=O)O)CC(=O)N[C@H]1CCC[C@@H]1C(=O)N[C@H]1CCC[C@@H]1C(N)=O)NC(=O)[C@H]1CCC[C@@H]1NC(=O)[C@H]1CCC[C@@H]1N [H12 LD]	
432	CC(C)[C@@H](CC(=O)N[C@H]1CCC[C@@H]1C(=O)N[C@H]1CCC[C@@H]1C(=O)N[C@H](CC(=O)N[C@H]1CCC[C@@H]1C(=O)N[C@H]1CCC[C@@H]1C(N)=O)[C@@H](C)O)NC(=O)[C@H]1CCC[C@@H]1NC(=O)[C@H]1CCC[C@@H]1N [H12 VT]	
244	CC[C@H](C)[C@@H](CC(=O)N[C@H]1CCC[C@@H]1C(=O)N[C@H]1CCC[C@@H]1C(N)=O)NC(=O)[C@H]1CCC[C@@H]1NC(=O)[C@H]1CCC[C@@H]1NC(=O)C[C@H](CCC(=O)O)NC(=O)[C@H]1CCC[C@@H]1NC(=O)[C@H]1CCC[C@@H]1N [H12 EI]	
430	NCCCC[C@@H](CC(=O)N[C@H]1CCC[C@@H]1C(=O)N[C@H]1CCC[C@@H]1C(N)=O)NC(=O)[C@H]1CCC[C@@H]1NC(=O)[C@H]1CCC[C@@H]1NC(=O)C[C@H](CC(N)=O)NC(=O)[C@H]1CCC[C@@H]1NC(=O)[C@H]1CCC[C@@H]1N [H12 NK]	
260	NC(=O)[C@H]1CCC[C@@H]1NC(=O)[C@H]1CCC[C@@H]1NC(=O)C[C@H](Cc1ccc(O)cc1)NC(=O)[C@H]1CCC[C@@H]1NC(=O)[C@H]1CCC[C@@H]1NC(=O)C[C@H](CCC(=O)O)NC(=O)[C@H]1CCC[C@@H]1NC(=O)[C@H]1CCC[C@@H]1N [H12 EY]	
469	CC(C)[C@@H](CC(=O)N[C@H]1CCC[C@@H]1C(=O)N[C@H]1CCC[C@@H]1C(=O)N[C@@H](CCC(=O)O)CC(=O)N[C@H]1CCC[C@@H]1C(=O)N[C@H]1CCC[C@@H]1C(N)=O)NC(=O)[C@H]1CCC[C@@H]1NC(=O)[C@H]1CCC[C@@H]1N [H12 VE]	
